# Legend:
# Balb-c white mice = test: Toxicity (LD50 / deaths), arachis oil intraperitoneal
# Excerpt: Vehicle: Arachis oil/Intraperitoneal
# Subject: Balb-c white mice
# (§1) Again as with the results given earlier, the tumour was ADJ/PC6, the vehicle was Arachis oil administered intraperitoneally to Balb-c white mice.
# ADJ/PC6 tumour = test: Antitumour test, ADJ/PC6 tumour, arachis oil intraperitoneal; assay type: in vivo, Balb-c white mice
# Excerpt: Vehicle: Arachis oil/Intraperitoneal
# Subject: Balb-c white mice
# as §1
SMILES,LD50 (Balb-c white mice; table 9),"inhib (ADJ/PC6 tumour; table 9, line under Cl4 n-octyl, dose not stated)","LD50 (Balb-c white mice; table 1, doses in mgm/Kgm)","% Inhibition (ADJ/PC6 tumour; dose 12 mgm/Kgm, Balb-c mice)","% Inhibition (ADJ/PC6 tumour; dose 60 mgm/Kgm, Balb-c mice)","ED90 (ADJ/PC6 tumour; table 1, doses in mgm/Kgm, Balb-c mice)"
CCCCCCCCN.CCCCCCCCN.[Cl][Pt]([Cl])([Cl])[Cl] [Cl4 n-octyl],270 mg/kg,< 20%,–,–,–,–
[NH2][Pt]([NH2])([OH])([OH])([Cl])[Cl] [trans di-hydroxo complexes of Pt(IV)],–,–,135 mg/kg,95.4%,97.1%,< 12 mg/kg

# Source: patent publication US4119653A, “Co-ordination compounds of platinum” (Rustenburg Platinum Mines Limited, priority 1976, dated 1978)
